Reference: patent US9751837B2, “Kinase inhibitors” (RESPIVERT LIMITED, priority 2014, dated 2017)
Where two headings read alike, the source gives them in different places. Each block holds one molecule with its values, some of them ahead of it.

Experiments:
LPS-stimulated rats = assay: Endotoxin-induced uveitis in rats (vi); assay type: in vivo, Lewis rats; conditions: rats treated with intravitreal endotoxin LPS
Description: Male, Lewis rats (6-8 weeks old, Charles River UK Limited) are housed in cages of 3 at 19-21° C. with a 12 h light/dark cycle (07:00/19:00) and fed a standard diet of rodent chow and water ad libitum. Non-fasted rats are weighed, individually identified on the tail with a permanent marker, and receive a single intravitreal administration into the right vitreous humor (5 μL dose volume) of 100 ng/animal of LPS (Escherichia coli 0111:B4 prepared in PBS, Sigma Aldrich, UK) using a 32-gauge needle. Untreated rats are injected with PBS. Test compound or vehicle (4% polyoxyl 40 stearate, 4% mannitol in PBS (pH 7.4)) are administered by the topical route onto the right eye (10 μL) of animals 1 hour prior to LPS, at the time of LPS administration, and 1, 2 and 4 hours post LPS administration. Before administration, the solution to be administered is sonicated to ensure a clear solution. 6 hours after LPS dosing, animals are euthanized by overdose with pentobarbitone (via cardiac puncture). Immediately after euthanasia, 10 μL of aqueous humor is collected from the right eye of the rats by puncture of the anterior chamber using a 32 gauge needle under a surgical microscope. The aqueous humor is diluted in 20 μL of PBS and total cell counts are measured immediately using a Countess automated cell counter (Invitrogen). […]

[1] = assay type: in vivo; conditions: four daily instillations, 0.1 and 1.0 mg/mL, rabbits
[2] = tested on: Salmonella typhimurium, strains TA1535, TA1537, TA98 and TA100; assay: Bacterial reverse mutation screen, Salmonella typhimurium
[3] = Stability of pharmaceutical formulations (HPLC); assay type: physicochemical; conditions: 1 mg/mL Na and HCl salts in 10 mM pH 7.2 phosphate buffer, 4.5% mannitol, 3% polyoxyl 40 stearate; 5° C.
Description: The samples were sonicated to achieve clear solutions having the following properties: Osmolality (mOsm/kg): 310 (Na), 314 (HCl); pH: 7.00 (Na), 7.05 (HCl). 0.5 mL of the stock solutions were diluted to 1 mL with 20% DMSO in water & injected for purity analysis by HPLC. The remaining stock solutions were then split into aliquots of 0.5 mL in HPLC vials, and stored at various conditions in duplicate. Samples were stored at 5 and 25° C., before being analysed by HPLC at 1, 2 and 4 weeks. Separate samples were stored at 40° C. and analysed at 4 weeks.

[4] = tested on: Escherichia coli, WP2 uvrA; assay: Bacterial reverse mutation screen, Escherichia coli; conditions: presence or absence of S-9 mix, plate incorporation
c-Src = c-Src (Homo sapiens (Human), UniProt P12931); assay: c-Src enzyme inhibition, Z-LYTE FRET; assay type: biochemical
Description: (§1) The enzyme inhibitory activities of compounds disclosed herein are determined by FRET using synthetic peptides labelled with both donor and acceptor fluorophores (Z-LYTE, Invitrogen Ltd., Paisley, UK).
The inhibitory activities of compounds of the invention against c-Src and Syk enzymes (Invitrogen), are evaluated in a similar fashion to that described hereinabove. The relevant enzyme (3000 ng/mL or 2000 ng/mL respectively, 2.5 μL) is incubated with the test compound (either 1 μg/mL, 0.1 μg/mL, 0.01 μg/mL, or 0.001 μg/mL, 2.5 μL each) for 2 hr at RT. The FRET peptides (8 μM. 2.5 μL), and appropriate ATP solutions (2.5 μL, 800 μM for c-Src, and 60 μM ATP for Syk) are then added to the enzymes/compound mixtures and the mixture incubated for 1 hr. Development reagent (protease, 5 μL) is added for 1 hr prior to detection in a fluorescence microplate reader (Varioskan® Flash, ThermoFisher Scientific).
(§2) In all cases, the site-specific protease cleaves non-phosphorylated peptide only and eliminates the FRET signal. Phosphorylation levels of each reaction are calculated using the ratio of coumarin emission (donor) over fluorescein emission (acceptor), for which high ratios indicate high phosphorylation and low ratios indicate low phosphorylation levels.

p38 MAPKα (MAPK14) = p38 MAPKα (MAPK14) (Homo sapiens (Human), UniProt Q16539); assay: p38 MAPKα enzyme inhibition (Method 2), Z-LYTE FRET; assay type: biochemical
Description: as §1
The following two assay variants can be used for determination of p38 MAPKα inhibition.
The inhibitory activities of test compounds against the p38 MAPKα isoform (MAPK14: Invitrogen) are evaluated indirectly by determining the level of activation/phosphorylation of the down-stream molecule, MAPKAP-K2. The p38 MAPKα protein (80 ng/mL, 2.5 μL) is mixed with the test compound (2.5 μL of either 4 μg/mL, 0.4 μg/mL, 0.04 μg/mL or 0.004 μg/mL) for 2 hr at RT. […] The mixture is incubated for 1 hr at RT. Development reagent (protease, 5 μL) is added for 1 hr prior to detection in a fluorescence microplate reader (Varioskan® Flash, ThermoFisher Scientific). […]
as §2

[5] = Pharmacokinetics and total colon distribution after single oral administration; assay type: in vivo, male C57BL/6 mice; conditions: mice, oral 5 mg/kg; for total colon level: measured cpd = dosed cpd (1, 19, 47 as Na salt, 44 as NH4+ salt); for Mean blood concentration: measured cpd = dosed cpd (19, 47 as Na salt)
Description: Studies were conducted by Sai Life Sciences (Hinjewadi, Pune, India) to investigate the systemic pharmacokinetics and total colon tissue distribution of compounds of the invention. In particular, pharmacokinetic studies were carried out in male C57BL/6 mice following a single oral administration of the compound.

Syk = Syk (Homo sapiens (Human), UniProt P43405); assay: Syk enzyme inhibition, Z-LYTE FRET; assay type: biochemical
Description: as §1
The relevant enzyme (3000 ng/mL or 2000 ng/mL respectively, 2.5 μL) is incubated with the test compound (either 1 μg/mL, 0.1 μg/mL, 0.01 μg/mL, or 0.001 μg/mL, 2.5 μL each) for 2 hr at RT. […] Development reagent (protease, 5 μL) is added for 1 hr prior to detection in a fluorescence microplate reader (Varioskan® Flash, ThermoFisher Scientific).
as §2

[6] = Hydrolytic stability study (DMSO/water 3:1, 60° C.); assay type: physicochemical
Description: Chemical stability of compounds of the invention was assessed in a mixture of DMSO and water (3:1) at a test compound concentration of 1 mg/mL.
General HPLC Procedure • Agilent, Waters X-Select C18, 2.5 μm, 4.6×30 mm column, 4 min method, 5-95% MeCN/water (0.1% formic acid). Flow rate 2.5 mL/min. Column Oven Temperature 40° C. Detection 254 nm.
Sample Preparation • A 1.0 mg sample of test compound was dissolved in 750 μL of DMSO. Water (250 μL) was added slowly, ensuring no precipitation occurred.
Recording Stability • A 50 μL aliquot of the test solution was removed and analysed in duplicate by 5 μL HPLC injections. The peak area for the test compound was recorded following manual integration of the corresponding UV trace. • The test solution was heated to 60° C., with stirring, and 50 μL aliquots removed for HPLC analysis at 5 and 24 h timepoints.

Chain of c-Src (P12931 whole entry, looked up): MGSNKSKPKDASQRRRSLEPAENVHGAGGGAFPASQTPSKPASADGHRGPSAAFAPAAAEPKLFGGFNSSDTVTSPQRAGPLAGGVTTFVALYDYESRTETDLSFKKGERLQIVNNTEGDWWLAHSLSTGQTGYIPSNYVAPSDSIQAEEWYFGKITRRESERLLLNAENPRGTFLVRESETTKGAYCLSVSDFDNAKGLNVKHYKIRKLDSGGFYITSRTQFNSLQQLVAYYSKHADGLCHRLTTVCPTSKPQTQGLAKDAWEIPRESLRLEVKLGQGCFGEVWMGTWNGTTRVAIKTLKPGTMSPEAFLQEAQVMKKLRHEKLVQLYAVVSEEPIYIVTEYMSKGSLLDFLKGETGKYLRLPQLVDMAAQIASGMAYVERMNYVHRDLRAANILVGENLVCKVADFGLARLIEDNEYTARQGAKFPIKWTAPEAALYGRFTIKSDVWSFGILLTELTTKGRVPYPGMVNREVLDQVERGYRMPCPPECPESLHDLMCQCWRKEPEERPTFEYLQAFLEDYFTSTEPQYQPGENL
Chain of p38 MAPKα (MAPK14) (Q16539 whole entry): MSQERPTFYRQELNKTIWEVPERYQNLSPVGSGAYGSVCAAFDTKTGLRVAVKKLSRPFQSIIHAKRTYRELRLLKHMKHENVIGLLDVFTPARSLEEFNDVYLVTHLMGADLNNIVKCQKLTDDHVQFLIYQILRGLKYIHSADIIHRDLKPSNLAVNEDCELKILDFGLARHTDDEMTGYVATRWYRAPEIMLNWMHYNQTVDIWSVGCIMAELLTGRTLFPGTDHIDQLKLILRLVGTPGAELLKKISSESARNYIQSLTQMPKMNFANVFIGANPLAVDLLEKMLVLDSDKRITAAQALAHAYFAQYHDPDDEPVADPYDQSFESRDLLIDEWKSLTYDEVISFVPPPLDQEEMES

SMILES: COc1cc(Nc2cc(Oc3ccc(NC(=O)Nc4cc(C(C)(C)C)cc(NS(C)(=O)=O)c4OC)c4ccccc34)ccn2)ccc1C(=O)O [Example 1, 4-((4-((4-(3-(5-(tert-Butyl)-2-methoxy-3-(methylsulfonamido)phenyl)ureido)naphthalen-1-yl)oxy)pyridin-2-yl)amino)-2-methoxybenzoic acid]
cellular infiltration and cytokine IL-1β levels in anterior and posterior segments of the eyes (LPS-stimulated rats): significantly and dose-dependently reduced
local tolerability of the formulations (ocular) ([1]; Phase 1: one treatment day): acceptable
local tolerability of the formulations (ocular) ([1]; Phase 2: three consecutive treatment days): acceptable
mutagenic effects (revertant numbers) ([2]; TA1535, TA1537, TA98, TA100, presence or absence of S-9 mix, plate incorporation): absence of any mutagenic effects
dose with reduction in the mean colony count (toxicity to the bacteria) ([2]; TA1535, presence of S-9 mix): 1500 μg/plate
limit of solubility in the mutation test ([2]; all strains, presence and absence of S-9 mix, plate incorporation): 1500 μg/plate
stability in solution [3]: stable
mutagenic effects (revertant numbers) [4]: absence of any mutagenic effects

IC50 (c-Src): 0.032 µM
IC50 (p38 MAPKα (MAPK14)): 0.066 µM
SMILES: COc1c(NC(=O)Nc2ccc(Oc3ccnc(Nc4ccc(C(=O)NCCN5CCOCC5)cc4)c3)c3ccccc23)cc(C(C)(C)C)cc1NS(C)(=O)=O [17(u), 4-[[4-[[4-[[5-tert-butyl-3-(methanesulfonamido)-2-methoxy-phenyl]carbamoylamino]-1-naphthyl]oxy]-2-pyridyl]amino]-N-(2-morpholinoethyl)benzamide]

total colon level ([5]; 0.5 h): 0.0 ng/g
Mean blood concentration ([5]; 0.5 h): 0 µg/mL
total colon level ([5]; 1 h): 0.0 ng/g
Mean blood concentration ([5]; 1 h): 0 µg/mL
total colon level ([5]; 2 h): 0.0 ng/g
Mean blood concentration ([5]; 2 h): 0 µg/mL
total colon level ([5]; 4 h): 0.0 ng/g
Mean blood concentration ([5]; 4 h): 0 µg/mL
total colon level ([5]; 6 h): 0.0 ng/g
Mean blood concentration ([5]; 6 h): 0 µg/mL
total colon level ([5]; 8 h): 0.0 ng/g
Mean blood concentration ([5]; 8 h): 0 µg/mL
total colon level ([5]; 12 h): 0.0 ng/g
Mean blood concentration ([5]; 12 h): 0 µg/mL
total colon level ([5]; 24 h): 0.0 ng/g
Mean blood concentration ([5]; 24 h): 0 µg/mL
IC50 (Syk): 0.008 µM
IC50 (c-Src): 0.022 µM
IC50 (p38 MAPKα (MAPK14)): 0.008 µM
SMILES: COc1cc(Nc2cc(Oc3ccc(NC(=O)Nc4cc(C(C)(C)C)cc(NS(C)(=O)=O)c4OC)c4ccccc34)ccn2)ccc1C(=O)NCCOCCOCCOP(=O)(O)O [Example 19, 2-(2-(2-(4-((4-((4-(3-(5-(tert-Butyl)-2-methoxy-3-(methylsulfonamido)phenyl)ureido)naphthalen-1-yl)oxy)pyridin-2-yl)amino)-2-methoxybenzamido)ethoxy)ethoxy)ethyl dihydrogen phosphate]

decomposition under the conditions of the hydrolytic stability experiment [6]: substantial decomposition
SMILES: C#Cc1cc(Nc2nccc(Oc3ccc(NC(=O)Nc4cc(C(C)C)nn4-c4ccc(C)cc4)c4ccccc34)n2)cc(C(=O)NCCN2CCOCC2)c1 [Reference Compound B, 3-ethynyl-5-((4-((4-(3-(3-isopropyl-1-(p-tolyl)-1H-pyrazol-5-yl)ureido)naphthalen-1-yl)oxy)pyrimidin-2-yl)amino)-N-(2-morpholinoethyl)benzamide]
